In ChEMBL document CHEMBL4043226, “Design, synthesis and biological evaluation of benzamide and phenyltetrazole derivatives with amide and urea linkers as BCRP inhibitors” (Bioorg Med Chem Lett, 2017):

How the values were obtained:
[1] = biological target: T1, Broad substrate specificity ATP-binding cassette transporter ABCG2 (Homo sapiens, UniProt Q9UNQ0); experiment: Inhibition of ABCG2 (unknown origin) expressed in high five insect cell membrane vesicles assessed as reduction in BCRP ATPase activity at 3 to 30 uM preincubated for 3 mins followed by ATP addition measured for 20 mins
T1 sequence (Q9UNQ0 whole entry): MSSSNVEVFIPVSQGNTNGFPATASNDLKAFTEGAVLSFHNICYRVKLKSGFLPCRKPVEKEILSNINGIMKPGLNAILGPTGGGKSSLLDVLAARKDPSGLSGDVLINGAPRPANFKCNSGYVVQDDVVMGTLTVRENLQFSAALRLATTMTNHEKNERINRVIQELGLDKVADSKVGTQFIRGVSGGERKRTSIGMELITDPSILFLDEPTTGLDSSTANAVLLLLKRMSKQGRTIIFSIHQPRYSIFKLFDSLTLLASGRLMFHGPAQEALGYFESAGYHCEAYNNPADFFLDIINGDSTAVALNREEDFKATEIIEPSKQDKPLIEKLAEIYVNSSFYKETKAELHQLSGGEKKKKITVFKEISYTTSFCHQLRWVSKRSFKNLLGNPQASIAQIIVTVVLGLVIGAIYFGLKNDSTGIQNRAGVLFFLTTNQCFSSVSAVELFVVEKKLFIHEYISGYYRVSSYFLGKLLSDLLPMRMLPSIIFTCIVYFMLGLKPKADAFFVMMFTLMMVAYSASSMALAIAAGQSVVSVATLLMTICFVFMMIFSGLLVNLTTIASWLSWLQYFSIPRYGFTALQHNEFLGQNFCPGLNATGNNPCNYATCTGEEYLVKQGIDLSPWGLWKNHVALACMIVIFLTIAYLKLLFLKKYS

[2] = biological target: T1, Broad substrate specificity ATP-binding cassette transporter ABCG2; experiment: Inhibition of ABCG2 (unknown origin) expressed in high five insect cell membrane vesicles assessed as reduction in BCRP ATPase activity up to 3 uM preincubated for 3 mins followed by ATP addition measured for 20 mins
[3] = system: NCI-H460; experiment: Cytotoxicity against human H460 cells after 72 hrs by MTT assay; assay type: cell-based; conditions: NCI-H460, 72 h
[4] = Cytotoxicity against human NCI-H460/MX20 cells after 72 hrs by MTT assay; assay type: cell-based; conditions: NCI-H460/MX20, 72 h
[5] = Inhibition of ABCG2 in human H460/MX20 cells assessed as potentiation of mitoxantrone induced antiproliferative activity by measuring mitoxantrone IC50 at 10 uM preincubated for 2 hrs followed by mitoxantrone addition measured after 72 hrs by MTT assay (reference value: 6.161 +/- 0.172 microM)
[6] = biological target: T2, ABCG2 (BCRP) (Homo sapiens, UniProt Q9UNQ0); experiment: Activation of ABCG2 (unknown origin) expressed in high five insect cell membrane vesicles assessed as induction of basal BCRP ATPase activity at 10 uM preincubated for 3 mins followed by ATP addition measured for 20 mins relative to control; conditions: High Five insect cell membrane vesicles expressing ABCG2, read-out: FC
T2 sequence (Q9UNQ0 whole entry): T1 sequence (Q9UNQ0 whole entry)

[7] = Resistance index, ratio of mitoxantrone IC50 for human H460/MX20 cells to mitoxantrone IC50 for human H460 cells at 3 uM (reference value: 28.66)
[8] = Resistance index, ratio of mitoxantrone IC50 for human H460/MX20 cells to mitoxantrone IC50 for human H460 cells at 1 uM (reference value: 28.66)
[9] = Resistance index, ratio of mitoxantrone IC50 for human H460/MX20 cells to mitoxantrone IC50 for human H460 cells at 10 uM (reference value: 28.66)
[10] = biological target: T1, Broad substrate specificity ATP-binding cassette transporter ABCG2; experiment: Inhibition of BCRP (unknown origin) expressed in MCF-7 MX cells assessed as reduction in Hoechst 33342 accumulation preincubated for 30 mins followed by Hoechst 33342 addition measured every 60 secs up to 120 mins by fluorescence assay; assay type: cell-based

Row | Structure (SMILES) | inhibition (INH) [1] | inhibition (INH) [2] | IC50 [3] [µM] | IC50 [4] [µM] | IC50 [5] [µM] | fold induction at 20 min, 10 µM [6] | Ratio IC50 [7] | Ratio IC50 [8] | Ratio IC50 [9] | IC50 [10] [µM]
1 | CCCc1ccc(NC(=O)c2ccccc2NC(=O)Nc2ccc([N+](=O)[O-])cc2)cc1 | Active | Not Active | > 100 | > 100 | 0.325 | 1.47 | 2.24 | 2.89 | 1.51 | 
2 | CCCc1ccc(NC(=O)c2ccccc2NC(=O)c2ccc([N+](=O)[O-])cc2)cc1 |  |  | > 100 | > 100 |  |  | 3.64 | 3.87 | 2.76 | 0.94
